The results in this text go back to patent publication US9598365B2, “Method for synthesizing cycloalkanyl[b]indoles, cycloalkanyl[b]benzofurans, cycloalkanyl[b]benzothiophenes, compounds and methods of use” (Trustees of Dartmouth College, priority 2012, dated 2017).

The test system of assay [1] is hNCI-H716. Description: hNCI-H716 GLP-1 secretion. Type of assay: cell-based. As to conditions: GLP-1 secretion; for activation at 2 µM / activation at 20 µM / Primary SP hNCI (% Stim.): single point; for activation at 2 µM / activation at 20 µM: read-out: Primary SP hNCI (% Stim.); for EC50: concentration response curve, read-out: Primary CRC (EC50, μM) hNCI. The text has this: Selected compounds of this invention were screened for K-Ras Wnt synthetic lethal, anti-angiogenic activity, Wnt pathway modulatory activity, insulin and GLP-1 secretion modulatory activity, GPR119 receptor agonist activity, mGlu2R antagonist activity, CGRP receptor antagonist activity, Apelin receptor agonist activity and hexokinase 2 inhibitory activity using the PD^2 and TD^2 Screening Panel (Eli Lilly & Company). See Lee, et al. (2011) J. Biomol. Screen. 16:588-602.
(§1) In light of the above results, additional compounds (Table 7) were prepared and phenotypic assays were carried out using hNCI-H716 and mSTC-1 cell lines to monitor GLP-1 secretion (single point (SP) and concentration response curves (CRC)) (Table 8), as well as a secondary assay with pituitary cells (Table 9).

The test system of assay [2] is mSTC-1. Description: mSTC-1 GLP-1 secretion. Type of assay: cell-based. As to conditions: for activation at 2 µM / activation at 20 µM: single point, read-out: Primary SP mSTC (% Stim.); for EC50: concentration response curve, read-out: Primary CRC (EC50, μM) mSTC. As for the experimental part: as §1

Structures are written as SMILES. Values joined by “and” are separate entries in the source; they are usually repeats but may differ in a detail not shown here. Equal entries are not always repeated.

Take `Cn1c2c(c3ccccc31)C(C)(C)[C@@H]1C=C[C@H]2C1` [Compound 11g]: the activation at 2 µM in assay [1] (2 μM) is -0.8%. Besides, the activation at 20 µM in assay [1] (20 μM) was -2.7%.
Turning to `C[C@]12c3ccccc3N[C@H]1C1CCC2C1=O` (stereo partly shown) [Compound 22], the figures for the activation at 2 µM in assay [2] and in assay [1] (2 μM) were -1.8% and -1.5%, respectively. Moreover, the activation at 20 µM in assay [2] is 7.4%; in assay [1] (20 μM), -1.3%.
The matching figures for `c1ccc(C2CC3(CCCCC3)c3c2[nH]c2ccccc32)cc1` (stereo not shown) [Compound 19e]: 78.4%, 0%, 109% and 0%.
In the same order, the values of `O=C1OC2CCC1[C@]13CCO[C@]21Nc1ccccc13` (stereo partly shown) [Compound 28] are -2.4%, 1.2%, 4.4% and 4%.
For `Cn1c2c(c3ccccc31)[C@@H](c1ccc(C(F)(F)F)cc1)[C@@H]1C=C[C@H]2C1` (racemic) [Compound 11c], the “Primary SP hNCI (% Stim.)” value in assay [1] (2 μM) amounted to 1%; in assay [1] (20 μM), 0.7%.
Turning to `COc1ccc(C2CC3(CCCC3)c3c2n(C)c2ccccc32)cc1` (stereo not shown) [Compound 19v], the activation at 2 µM in assay [1] (2 μM) is -2%. Moreover, the activation at 20 µM in assay [1] (20 μM) was -2.4%.
For `COC(=O)c1ccc2[nH]c3c(c2c1)C(C)(C)C1C=CC3C1` (stereo not shown) [Compound 11r], the “Primary SP hNCI (% Stim.)” value in assay [1] (2 μM) is recorded as −1.1%; in assay [1] (20 μM), 13.4%.
On to `Cn1c2c(c3ccccc31)C1(CCCCC1)[C@@H]1C=C[C@H]2C1` [Compound 11j], for which the activation at 2 µM in assay [1] (2 μM) was -0.3%. Further, the activation at 20 µM in assay [1] (20 μM) was -3.3%.
As usually defined, the EC50 is the concentration that produces a half-maximal response. Turning to `CC(=O)Oc1ccc(C2CC3(CCCCC3)c3c2[nH]c2ccccc32)cc1` (stereo not shown) [Compound 19i], the activation at 2 µM in assay [2] was 13.5%; in assay [1] (2 μM) it was 0%. Besides, the activation at 20 µM was 104% in assay [2] and 23.4% in assay [1] (20 μM). For the same compound, the EC50 in assay [2] and in assay [1] was more than 40 µM throughout.
With `Cc1ccc(C2CC(C)(C)c3c2[nH]c2ccccc32)cc1` (stereo not shown) [Compound 19h], the activation at 2 µM in assay [2] was 93.2%; in assay [1] (2 μM), 0%. The activation at 20 µM in assay [2] turned out to be 107%; in assay [1] (20 μM), 0%.
Consider `Cc1ccc(C2CC3(CCCC3)c3c2n(C)c2ccccc32)cc1` (stereo not shown) [Compound 19w], for which the activation at 2 µM in assay [1] (2 μM) was -0.8%. Also, the activation at 20 µM in assay [1] (20 μM) is -1.9%.
For the compound `O=C1OC2CCC1[C@]13CCN[C@]21Nc1ccccc13` (stereo partly shown) [Compound 27], the figures for the activation at 2 µM in assay [2] and in assay [1] (2 μM) were -5.1% and 1%, respectively. Besides, the activation at 20 µM is -3.9% in assay [2] and 0.4% in assay [1] (20 μM).
For the compound `Cn1c2c(c3ccccc31)C1(CCCCC1)[C@@H]1C=C[C@H]2CC1` [Compound 11k], in assay [1] (2 μM), the activation at 2 µM came to 3.1%. In assay [1] (20 μM), the activation at 20 µM is -1.9%.
Regarding `COc1ccc([C@@H]2c3c(n(C)c4ccccc34)[C@H]3C=C[C@@H]2C3)cc1` (racemic) [Compound 11b], the “Primary SP hNCI (% Stim.)” value in assay [1] (2 μM) was −0.5%; in assay [1] (20 μM) it was −2.4%.
Turning to `Cn1c2c(c3ccccc31)[C@@H](c1cccs1)[C@@H]1C=C[C@H]2C1` [Compound 11e], the activation at 2 µM in assay [1] (2 μM) is -0.5%. The activation at 20 µM in assay [1] (20 μM) is -2.4%.
As for `CC[C@@H]1c2c(n(C)c3ccccc23)[C@H]2C=C[C@@H]1C2` [Compound 11f], the activation at 2 µM in assay [1] (2 μM) is -1.1%. In addition, the activation at 20 µM in assay [1] (20 μM) was -2.4%.
In the case of `COc1ccc2[nH]c3c(c2c1)C(C)(C)C1C=CC3C1` (stereo not shown) [Compound 11q], the “Primary SP hNCI (% Stim.)” value in assay [1] (2 μM) was determined as 1.3%; in assay [1] (20 μM), 5.9%.
Regarding `CC1(C)c2c([nH]c3ccc(C(F)(F)F)cc23)C2C=CC1C2` (stereo not shown) [Compound 11y], the EC50 in assay [2] is 10.4 µM and 5.88 µM. Moreover, the activation at 2 µM in assay [1] (2 μM) was -0.4%. In assay [1] (20 μM), the activation at 20 µM came to 55.9%.
`CC1(C)c2c([nH]c3ccc(O)cc23)C2C=CC1C2` (stereo not shown) [Compound 11x]: the EC50 in assay [2] and in assay [1] was more than 40 µM throughout. Besides, the activation at 2 µM in assay [1] (2 μM) was found to be 3.4%. Further, the activation at 20 µM in assay [1] (20 μM) is -0.8%.
On to `CC1=CCc2c(c3ccccc3n2C)C(c2ccccc2)C1` (stereo not shown) [Compound 11m], for which, in assay [1] (2 μM), the activation at 2 µM is -2.2%. For the same compound, in assay [1] (20 μM), the activation at 20 µM is -1%.
Regarding `COC(=O)[C@@H]1CC[C@H](O)[C@@]2(C)c3ccccc3N(C)[C@@H]12` [Compound 26], the activation at 2 µM in assay [2] is -2.4%; in assay [1] (2 μM) it was 1.4%. Besides, the activation at 20 µM in assay [2] was -3.1%; in assay [1] (20 μM) it was -1.3%.
With `CC1=C(C)CC2(CCCCC2)c2c(n(C)c3ccccc23)C1` [Compound 11l], in assay [1] (2 μM), the activation at 2 µM was -2%. Also, in assay [1] (20 μM), the activation at 20 µM was -3.3%.
With `Cn1c2c(c3ccccc31)[C@@H](c1ccco1)[C@@H]1C=C[C@H]2C1` [Compound 11d], the activation at 2 µM in assay [1] (2 μM) is -2.5%. Moreover, the activation at 20 µM in assay [1] (20 μM) is -1%.
For the compound `O=C1C2CCC1[C@@]1(CCO)c3ccccc3N[C@@H]21` (stereo partly shown) [Compound 21], the activation at 2 µM is -1% in assay [2] and 4.3% in assay [1] (2 μM). In addition, the activation at 20 µM is -2.4% in assay [2] and 3.4% in assay [1] (20 μM).
With `Cc1ccc(C2CC3(CCCCC3)c3c2[nH]c2ccc(C)cc32)cc1` (stereo not shown) [Compound 19g], the activation at 2 µM in assay [2] was 34.9%; in assay [1] (2 μM), 0%. Besides, the results for the activation at 20 µM in assay [2] and in assay [1] (20 μM) were 124% and 0%, respectively.
Consider `CC1(C)c2c([nH]c3ccccc23)C2C=CC1C2` (stereo not shown) [Compound 11p], for which the “Primary SP hNCI (% Stim.)” value in assay [1] (2 μM) is −0.5%; in assay [1] (20 μM), 23.3%.
With `CC1(C)c2c(n(Cc3ccccc3)c3ccccc23)[C@H]2C=C[C@@H]1C2` [Compound 11o], in assay [1] (2 μM), the activation at 2 µM is -0.3%. The activation at 20 µM in assay [1] (20 μM) is -2.1%.
On to `CC1(C)C(=O)C[C@]23CCCC[C@]12Nc1ccccc13` [Compound 20], for which the activation at 2 µM in assay [2] is -4.1%; in assay [1] (2 μM), -0.2%. Further, the activation at 20 µM in assay [2] is 8.2%; in assay [1] (20 μM), -1.1%.
Turning to `Cn1c2c(c3ccccc31)[C@@H](c1ccccc1)[C@@H]1C=C[C@H]2C1` [Compound 11a], the activation at 2 µM in assay [1] (2 μM) is -2.8%. In addition, the activation at 20 µM in assay [1] (20 μM) was -0.5%.
Take `CC1(C)c2c([nH]c3ccc(F)cc23)C2C=CC1C2` (stereo not shown) [Compound 11w]: the EC50 in assay [2] is 23.6 µM and 22.8 µM; in assay [1], 22.4 µM and 30.3 µM. The activation at 2 µM in assay [1] (2 μM) was 1.4%. Also, in assay [1] (20 μM), the activation at 20 µM was found to be 41.3%.
As for `Cn1c2c(c3ccccc31)C1(CCCC1)CC2c1ccccc1` (stereo not shown) [Compound 19u], the activation at 2 µM in assay [1] (2 μM) was -0.8%. Also, the activation at 20 µM in assay [1] (20 μM) was -3.8%.
In the same order, the values of `CC1C=CC(C)C(c2ccccc2)c2c1n(C)c1ccccc21` (stereo not shown) [Compound 11n] are 10.3% and -3.5%.
Turning to `Cn1c2c(c3ccccc31)C1(CCCC1)[C@@H]1C=C[C@H]2C1` [Compound 11i], the activation at 2 µM in assay [1] (2 μM) was 0%. Also, the activation at 20 µM in assay [1] (20 μM) is -6%.
In the same order, the values of `Cn1c2c(c3ccccc31)C1(CCCC1)CC2c1ccc2ccccc2c1` (stereo not shown) [Compound 19x] are -3.1% and -3.3%.
For `Cn1c2c(c3ccccc31)C1(CCC1)[C@@H]1C=C[C@H]2C1` [Compound 11h], the activation at 2 µM in assay [1] (2 μM) is -2.2%. In addition, the activation at 20 µM in assay [1] (20 μM) is -3.3%.
